# Results from ChEMBL document CHEMBL1153638, “Prolonged stability by cyclization: Macrocyclic phosphino dipeptide isostere inhibitors of beta-secretase (BACE1)” (Bioorg Med Chem Lett, 2009).
# Numbered stars: 1 amine (or outer) side, 2 acyl side, 3 side chain; on linkers, the order of the positions; unused ones are H or OH. Square brackets hold non-standard residues; d marks the D form. Peptide text beside a SMILES is read from it. X1 = CC(C)C[C@H](N[*:1])P(=O)(O)C[C@@H](C)C(=O)[*:2]
# Legend:
# Beta-secretase 1 [1] = target: T1, Beta-secretase 1 (Homo sapiens, UniProt P56817); assay: Inhibition of ectodomain of BACE1 secreted from […] cells by fluorimetry; type: cell-based
# T1 sequence (P56817 whole entry, the tested form may be a part): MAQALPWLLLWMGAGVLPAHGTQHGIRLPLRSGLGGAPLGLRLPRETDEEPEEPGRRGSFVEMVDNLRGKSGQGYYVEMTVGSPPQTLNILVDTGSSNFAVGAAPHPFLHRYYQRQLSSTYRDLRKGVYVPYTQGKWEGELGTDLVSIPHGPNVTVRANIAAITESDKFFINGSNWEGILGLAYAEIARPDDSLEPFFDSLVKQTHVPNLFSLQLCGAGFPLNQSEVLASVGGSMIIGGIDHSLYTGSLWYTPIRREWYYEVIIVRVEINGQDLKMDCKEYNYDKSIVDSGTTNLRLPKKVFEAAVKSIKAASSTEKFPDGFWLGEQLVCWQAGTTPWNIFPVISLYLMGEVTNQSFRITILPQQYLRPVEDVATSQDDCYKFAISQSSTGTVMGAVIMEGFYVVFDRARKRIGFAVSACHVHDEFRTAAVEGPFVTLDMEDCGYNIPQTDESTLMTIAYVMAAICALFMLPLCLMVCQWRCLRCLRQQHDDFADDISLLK
# [2] = Stability in human serum after 120 mins; type: ADME, cell-free; details: read-out: Stability
# Beta-secretase 1 [3] = target: T1, Beta-secretase 1; assay: Inhibition of full-domain of BACE1 expressed in […] cells; type: cell-based
# [4] = Stability in human serum assessed as half life; type: ADME, cell-free
# [5] = Stability in human serum after 160 mins; type: ADME, cell-free; details: read-out: Stability
SMILES,IC50 (Beta-secretase 1 [1]) [µM],remaining at 2 h [2] [%],IC50 (Beta-secretase 1 [3]) [µM],half-life [4] [min],remaining at 160 min [5] [%]
CC(CP(=O)(O)C1CCCCCC[C@H](NC(=O)[C@@H](N)CCC(=O)O)C(=O)N[C@@H](CC(=O)O)C(=O)N1)C(=O)N[C@H](C(=O)N[C@@H](CCC(=O)O)C(=O)N[C@@H](Cc1ccccc1)C(=O)O)C(C)C (mixture of isomers; form 3),0.522,,,,
CC(CP(=O)(O)C1CCCCCC[C@H](NC(=O)[C@@H](N)CCC(=O)O)C(=O)N[C@@H](CC(=O)O)C(=O)N1)C(=O)N[C@H](C(=O)N[C@@H](CCC(=O)O)C(=O)N[C@@H](Cc1ccccc1)C(=O)O)C(C)C (mixture of isomers; form 2),0.32,,,,
CC(C)C[C@H](NC(=O)[C@@H](N)CCC(=O)O)C(=O)N[C@@H](CC(=O)O)C(=O)N[C@@H](CC(C)C)P(=O)(O)C[C@@H](C)C(=O)N[C@H](C(=O)N[C@@H](CCC(=O)O)C(=O)N[C@@H](Cc1ccccc1)C(=O)O)C(C)C (H-ELD[X1]VEF-OH),,20,0.012,14.8,
CC(CP(=O)(O)C1CCCCCC[C@H](NC(=O)[C@@H](N)CCC(=O)O)C(=O)N[C@@H](CC(=O)O)C(=O)N1)C(=O)N[C@H](C(=O)N[C@@H](CCC(=O)O)C(=O)N[C@@H](Cc1ccccc1)C(=O)O)C(C)C (mixture of isomers; form 1),0.047,,,43.9,20
CC(CP(=O)(O)C1CCCCCC[C@H](NC(=O)[C@@H](N)CCC(=O)O)C(=O)N[C@@H](CC(=O)O)C(=O)N1)C(=O)N[C@H](C(=O)N[C@@H](CCC(=O)O)C(=O)N[C@@H](Cc1ccccc1)C(=O)O)C(C)C (mixture of isomers; form 4),0.808,,,,
